Marks after values point to notes of the source that are not given here.
Legend:
[1] = target: T1, PPARγ receptors (Homo sapiens, UniProt P37231); assay: PPARγ transactivation test; type: cell-based; design: expressed in transfected cells; conditions: concentration of 1 μM, relative to SB 219994 = 100%
T1 sequence (P37231 1-505): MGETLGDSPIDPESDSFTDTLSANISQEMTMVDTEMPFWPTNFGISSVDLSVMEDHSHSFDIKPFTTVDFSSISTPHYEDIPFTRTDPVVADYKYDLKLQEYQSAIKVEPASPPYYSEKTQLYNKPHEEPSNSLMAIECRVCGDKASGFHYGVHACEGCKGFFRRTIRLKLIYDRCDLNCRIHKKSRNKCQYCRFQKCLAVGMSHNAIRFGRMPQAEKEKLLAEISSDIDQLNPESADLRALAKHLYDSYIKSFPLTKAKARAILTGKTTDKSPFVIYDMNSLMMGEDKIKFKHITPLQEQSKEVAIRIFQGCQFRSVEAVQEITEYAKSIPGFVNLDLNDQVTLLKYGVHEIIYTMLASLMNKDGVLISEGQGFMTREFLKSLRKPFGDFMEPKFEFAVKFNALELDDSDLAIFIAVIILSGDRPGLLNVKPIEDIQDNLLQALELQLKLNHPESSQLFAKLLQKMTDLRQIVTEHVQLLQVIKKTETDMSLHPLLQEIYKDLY
Excerpt: (§1) The agonist activity of the compounds according to the invention towards PPARγ receptors may be evaluated by binding tests and transactivation tests.

[2] = target: T1, PPARγ receptors; assay: PPARγ binding test, competition with tritiated BRL 49,653; design: made in house; host or cells: Sf9 insect cells (recombinant baculovirus); conditions: hydroxyapatite gel, receptor from Sf9 insect cells, read-out: Binding of PPAR-γ Kd
Protocol: The technique of adsorption on hydroxyapatite gel was used to separate the receptor-bound ligand from the free ligand. The human PPARγ receptor was prepared from Sf9 insect cells infected with a recombinant baculovirus. The results are expressed as a Kd value (nM) which represents the equilibrium dissociation constant obtained for each compound.
as §1

[3] = target: T2, PPARα receptors (Homo sapiens, UniProt Q07869); assay: PPARα transactivation test; type: cell-based; conditions: concentration of 1 μM, relative to Wy 14643 = 100%
T2 construct: expressed in transfected cells
T2 sequence (Q07869 1-468): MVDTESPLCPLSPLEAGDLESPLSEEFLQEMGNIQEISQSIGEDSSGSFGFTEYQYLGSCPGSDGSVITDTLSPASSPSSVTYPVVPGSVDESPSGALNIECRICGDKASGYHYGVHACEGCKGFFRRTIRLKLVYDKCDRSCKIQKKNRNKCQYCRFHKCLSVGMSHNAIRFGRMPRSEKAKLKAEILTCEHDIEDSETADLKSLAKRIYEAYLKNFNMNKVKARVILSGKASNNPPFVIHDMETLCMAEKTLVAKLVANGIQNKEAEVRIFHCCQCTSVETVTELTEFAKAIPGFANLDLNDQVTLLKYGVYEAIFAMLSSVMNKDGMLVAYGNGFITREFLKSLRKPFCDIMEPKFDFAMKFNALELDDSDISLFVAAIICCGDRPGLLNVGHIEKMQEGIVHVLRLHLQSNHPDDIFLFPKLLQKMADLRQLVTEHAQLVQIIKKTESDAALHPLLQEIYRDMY
Excerpt: [Worded in the source for another target; this target is reported under the same test.] as §1

SMILES | % of activation of PPARγ [1] | Kd [2] | activation at 1 µM [1] | activation at 1 µM [3] | % of activation of PPARα [3]
CN(CCOc1ccc(C[C@H](OCC(F)(F)F)C(=O)O)cc1)c1nc2ccccc2o1 [Reference 2: SB 219994, reference compound] | 100% | 0.5 nM | – | – | –
CCOc1ccc(C(=O)N(C)Cc2cccc(-c3ccc(CC4SC(=O)NC4=O)cc3)c2)cc1OCC (stereo not shown) [Example 28, N-[4′-(2,4-Dioxothiazolidin-5-ylmethyl)biphenyl-3-ylmethyl]-3,4-diethoxy-N-methylbenzamide] | – | – | 79.8% | 1.1% | –
CCO[C@@H](Cc1ccc(-c2cccc(CN(C)C(=O)c3ccccc3)c2)cc1)C(=O)O [Example 13, (S)-2-Ethoxy-3-(3′-{[methyl-(1-phenylmethanoyl)-amino]methyl}biphenyl-4-yl)propionic acid] | – | 24 nM | 70.2% | 0% | –
CCCCCCCC(=O)N(C)Cc1cccc(-c2ccc(CC3SC(=O)NC3=O)cc2)c1 (stereo not shown) [Example 34, N-[4′-(2,4-Dioxothiazolidin-5-ylmethyl)biphenyl-3-ylmethyl]-N-methyloctanamide] | – | 2 nM | 102% | 17.6% | –
CN(Cc1cccc(-c2ccc(CC3SC(=O)NC3=O)cc2)c1)C(=O)OC(C)(C)C (stereo not shown) [Example 11, tert-Butyl [4′-(2,4-dioxothiazolidin-5-ylmethyl)biphenyl-3-ylmethyl]methylcarbamate] | – | 289 nM | 74.5% | 2.4% | –
CN(Cc1cccc(-c2ccc(CC3SC(=O)NC3=O)cc2)c1)c1ccccn1 (stereo not shown) [Example 2, 5-{3′-[(Methylpyrid-2-ylamino)methyl]biphenyl-4-ylmethyl}thiazolidine-2,4-dione] | – | 263 nM | 42.9% | 8.2% | –
CN(Cc1cccc(-c2ccc(CC3SC(=O)NC3=O)cc2)c1)C(=O)c1ccccc1 (stereo not shown) [Example 1, N-[4′-(2,4-Dioxothiazolidin-5-ylmethyl)biphenyl-3-ylmethyl]-N-methylbenzamide] | – | 55 nM | 102% | 8.2% | –
CCCN(Cc1cccc(-c2ccc(C=C3SC(=O)NC3=O)cc2)c1)C(=O)c1ccccc1 [Example 26, N-[4′-(2,4-Dioxothiazolidin-5-ylidenemethyl)-biphenyl-3-ylmethyl]-N-propylbenzamide] | – | – | 88.6% | 2.1% | –
CN(Cc1ccccc1)C(=O)c1cccc(-c2ccc(CC3SC(=O)NC3=O)cc2)c1 (stereo not shown) [Example 30, N-Benzyl-N-methyl-4′-(2,4-dioxothiazolidin-5-ylmethyl)biphenyl-3-carboxamide] | – | – | 80.3% | 8.9% | –
CCCCCCCCC(=O)N(C)Cc1cccc(-c2ccc(CC3SC(=O)NC3=O)cc2)c1 (stereo not shown) [Example 12, N-[4′[2,4-dioxothiazolidin-5-ylmethyl)biphenyl-3-ylmethyl]-N-methylnonanamide] | – | 7 nM | 60.4% | 0% | –
CN(Cc1cccc(-c2ccc(CC3SC(=O)NC3=O)cc2)c1)C(=O)OCC1c2ccccc2-c2ccccc21 (stereo not shown) [Example 21, 9H-Fluoren-9-ylmethyl [4′-(2,4-dioxothiazolidin-5-ylmethyl)biphenyl-3-ylmethyl]methylcarbamate] | – | 190 nM | 90% | 14.9% | –
CCCCCCCCCC(=O)N(C)Cc1cccc(-c2ccc(CC3SC(=O)NC3=O)cc2)c1 (stereo not shown) [Example 32, N-[4′-(2,4-Dioxothiazolidin-5-ylmethyl)biphenyl-3-ylmethyl]-N-methyldecanamide] | – | – | 74.9% | 0% | –
Cc1cccc(Nc2cc(Cl)nc(SCC(=O)O)n2)c1C [Reference 1: Wy 14643, reference compound] | – | – | – | – | 100* %
CN(Cc1cccc(-c2ccc(CC3SC(=O)NC3=O)cc2)c1)C(=O)Nc1ccccc1 (stereo not shown) [Example 10, 1-[4′-(2,4-Dioxothiazolidin-5-ylmethyl)biphenyl-3-ylmethyl]-1-methyl-3-phenylurea] | – | 800 nM | 22.1% | 0% | –
CCCCCCC(=O)N(C)Cc1cccc(-c2ccc(CC3SC(=O)NC3=O)cc2)c1 (stereo not shown) [Example 35, N-[4′-(2,4-Dioxothiazolidin-5-ylmethyl)biphenyl-3-ylmethyl]-N-methylheptanamide] | – | – | 56% | 11% | –
CN(Cc1cccc(-c2ccc(CC3SC(=O)NC3=O)cc2)c1)C(=O)C(C)(C)C (stereo not shown) [Example 22, N-[4′-(2,4-Dioxothiazolidin-5-ylmethyl)biphenyl-3-ylmethyl]-2,2,N-trimethylpropionamide] | – | 76.6 nM | 95.3% | 7.5% | –
CN(Cc1cccc(-c2ccc(CC3SC(=O)NC3=O)cc2)c1)C(=O)CCc1ccccc1 (stereo not shown) [Example 24, N-[4′-(2,4-Dioxothiazolidin-5-ylmethyl)biphenyl-3-ylmethyl]-N-methyl-3-phenylpropionamide] | – | 72.3 nM | 95% | 8.7% | –
